9 compounds from patent US20250325687A1, “CONJUGATE COMPRISING TOLL-LIKE RECEPTOR AGONIST” (MABSOFT THERAPEUTICS (SHANGHAI) CO., LTD., priority 2022, published 2025) can be followed below.

Structures are written as SMILES. Some results are limits rather than exact numbers.

Common to all, as to type: cell-based
For experiment [1], the target named is T1, hTLR7 (human Toll-like receptor 7) (Homo sapiens, UniProt Q9NYK1).
T1 construct: host or cells: HEK-Blue hTLR7 (HEK293-derived reporter cells)
T1 sequence (Q9NYK1 27-1049): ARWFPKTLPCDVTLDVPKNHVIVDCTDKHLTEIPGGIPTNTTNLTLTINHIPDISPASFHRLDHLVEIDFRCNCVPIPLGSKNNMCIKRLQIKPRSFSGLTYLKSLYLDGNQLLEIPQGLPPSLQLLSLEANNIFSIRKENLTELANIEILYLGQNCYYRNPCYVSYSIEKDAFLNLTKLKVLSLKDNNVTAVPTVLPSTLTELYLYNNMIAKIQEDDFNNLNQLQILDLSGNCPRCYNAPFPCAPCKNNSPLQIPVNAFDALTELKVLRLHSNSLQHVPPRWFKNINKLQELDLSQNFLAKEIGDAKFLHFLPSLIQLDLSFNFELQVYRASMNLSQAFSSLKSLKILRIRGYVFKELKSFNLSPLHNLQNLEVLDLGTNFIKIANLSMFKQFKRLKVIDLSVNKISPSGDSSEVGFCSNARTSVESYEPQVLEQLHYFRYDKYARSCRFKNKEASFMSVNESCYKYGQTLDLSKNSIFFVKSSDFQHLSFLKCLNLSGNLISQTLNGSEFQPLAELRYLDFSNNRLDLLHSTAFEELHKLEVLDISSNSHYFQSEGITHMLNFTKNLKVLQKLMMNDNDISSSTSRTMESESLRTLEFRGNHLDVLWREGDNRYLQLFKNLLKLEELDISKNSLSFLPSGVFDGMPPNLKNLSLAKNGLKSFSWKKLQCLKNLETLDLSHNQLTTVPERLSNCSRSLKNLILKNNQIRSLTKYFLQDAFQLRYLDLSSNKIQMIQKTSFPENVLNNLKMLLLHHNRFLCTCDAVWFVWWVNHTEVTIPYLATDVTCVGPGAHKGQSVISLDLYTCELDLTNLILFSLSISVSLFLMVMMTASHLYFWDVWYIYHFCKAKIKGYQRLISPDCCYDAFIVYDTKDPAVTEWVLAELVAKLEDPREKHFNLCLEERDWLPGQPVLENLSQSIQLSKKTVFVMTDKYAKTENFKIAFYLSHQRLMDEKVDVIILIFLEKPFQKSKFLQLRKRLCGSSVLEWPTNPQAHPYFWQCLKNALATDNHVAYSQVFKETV
Briefly: hTLR7 cell assay (HEK-Blue hTLR7 reporter cells). The conditions noted are these: 24 hours, OD 650 nm. In a few lines:
(§1)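 HEK-Blue reporter cells in HEK-Blue Detection medium (50000 cells/mL) were exposed to test compounds for 24 hours at 37° C, 5% CO2. Agonism was read from supernatant incubated 1 hour at 37° C with QUANTI-Blue, measured as optical density at 650 nm.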

For experiment [2], the target named is T2, hTLR8 (human Toll-like receptor 8) (Homo sapiens, UniProt Q9NR97).
T2 construct: host or cells: HEK-Blue hTLR8 (HEK293-derived reporter cells)
T2 sequence (Q9NR97 27-1041): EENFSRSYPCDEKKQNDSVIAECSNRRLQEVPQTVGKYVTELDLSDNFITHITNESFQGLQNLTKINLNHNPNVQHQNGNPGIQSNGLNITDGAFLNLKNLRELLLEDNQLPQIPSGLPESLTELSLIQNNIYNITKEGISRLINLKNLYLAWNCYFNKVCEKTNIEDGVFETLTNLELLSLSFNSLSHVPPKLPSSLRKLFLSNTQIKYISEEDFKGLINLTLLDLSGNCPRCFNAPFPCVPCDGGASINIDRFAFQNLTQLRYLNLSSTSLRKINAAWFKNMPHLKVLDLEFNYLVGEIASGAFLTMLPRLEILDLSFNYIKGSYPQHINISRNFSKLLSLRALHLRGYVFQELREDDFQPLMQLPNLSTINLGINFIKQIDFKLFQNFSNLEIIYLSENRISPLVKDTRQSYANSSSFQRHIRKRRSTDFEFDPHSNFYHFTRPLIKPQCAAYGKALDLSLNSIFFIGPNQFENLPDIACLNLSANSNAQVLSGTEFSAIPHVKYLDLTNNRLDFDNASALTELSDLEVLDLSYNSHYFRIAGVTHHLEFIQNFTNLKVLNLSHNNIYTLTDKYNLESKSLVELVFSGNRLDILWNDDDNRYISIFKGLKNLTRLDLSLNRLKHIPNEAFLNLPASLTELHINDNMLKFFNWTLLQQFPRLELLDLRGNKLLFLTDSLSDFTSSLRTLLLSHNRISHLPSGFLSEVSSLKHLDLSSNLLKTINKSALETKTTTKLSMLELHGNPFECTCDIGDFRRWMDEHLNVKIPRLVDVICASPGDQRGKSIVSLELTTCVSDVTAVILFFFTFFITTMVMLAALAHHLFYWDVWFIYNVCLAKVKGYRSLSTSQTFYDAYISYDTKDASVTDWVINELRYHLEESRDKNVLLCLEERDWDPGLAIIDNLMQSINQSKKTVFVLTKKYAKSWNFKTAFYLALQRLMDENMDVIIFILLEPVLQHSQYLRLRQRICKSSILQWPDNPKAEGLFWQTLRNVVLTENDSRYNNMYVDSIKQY
Briefly: hTLR8 cell assay (HEK-Blue hTLR8 reporter cells). The following applies: 24 hours, OD 650 nm. In a few lines:
as §1

Experiment [3] deals with human PBMC (human peripheral blood mononuclear cells). Briefly: PBMC screening assay: induction of TNF-α production. The following applies: human PBMC, 24 hours, TNF-α by ELISA; class symbols; read-out: EC50 (μM) TNF-α (hPBMC). In a few lines:
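Human PBMC were rested for 24 h, then treated in duplicate with compound at 2.54 nM to 50 μM for 24 h at 37 °C. Secreted TNF-α in the cleared supernatant was quantified by ELISA, read at OD 450 nm.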

With `CCCCc1nc2c(N)nc3cc(Cc4ccc(C(C)(C)CN)cc4)ccc3c2n1CC(C)(C)O` [Compound 70, 1-(4-amino-7-(4-(1-amino-2-methylpropan-2-yl)benzyl)-2-butyl-1H-imidazo[4,5-c]quinolin-1-yl)-2-methylpropan-2-ol], the EC50 is less than 1000 nM in experiment [1], less than 5000 nM in experiment [2] and less than 0.64 µM in experiment [3].

On to `CCCCc1nc2c(N)nc3cc(Cc4ccccc4CN)ccc3c2n1CC(C)(C)O` [Compound 71, 1-(4-amino-7-(2-(aminomethyl)benzyl)-2-butyl-1H-imidazo[4,5-c]quinolin-1-yl)-2-methylpropan-2-ol], for which the results for the EC50 in experiment [1], in experiment [2] and in experiment [3] were 1000 to 10000 nM, less than 5000 nM and more than 0.64 µM, respectively.

In the case of `CCOCc1nc2c(N)nc3cc(Cc4ccc(CN)s4)ccc3c2n1CC(C)(C)O` [Compound 147, 1-(4-amino-7-((5-(aminomethyl)thiophen-2-yl)methyl)-2-(ethoxymethyl)-1H-imidazo[4,5-c]quinolin-1-yl)-2-methylpropan-2-ol], the EC50 in experiment [1] is less than 1000 nM; in experiment [2], less than 5000 nM; in experiment [3], less than 0.64 µM.

As for `CCOCc1nc2c(N)nc3cc(Cc4cc(CN)ccc4F)ccc3c2n1CC(C)(C)O` [Compound 148, 1-(4-amino-7-(5-(aminomethyl)-2-fluorobenzyl)-2-(ethoxymethyl)-1H-imidazo[4,5-c]quinolin-1-yl)-2-methylpropan-2-ol], the half-maximal effective concentration (EC50) in experiment [1] was less than 1000 nM; in experiment [2], less than 5000 nM; in experiment [3], less than 0.64 µM.

`CCOCc1nc2c(N)nc3cc(Cc4ccc(F)c(CN)c4)ccc3c2n1CC(C)(C)O` [Compound 149]: the EC50 was less than 1000 nM in experiment [1], less than 5000 nM in experiment [2] and less than 0.64 µM in experiment [3].

With `CCOCc1nc2c(N)nc3cc(Cc4cccc(CNC(=O)CN)c4)ccc3c2n1CC(C)(C)O` [Compound 150, 2-amino-N-(3-((4-amino-2-(ethoxymethyl)-1-(2-hydroxy-2-methylpropyl)-1H-imidazo[4,5-c]quinolin-7-yl)methyl)benzyl)acetamide], the EC50 in experiment [1] is 1000 to 10000 nM; in experiment [2], less than 5000 nM; in experiment [3], less than 0.64 µM.

As to `CCOCc1nc2c(N)nc3cc(Cc4cccc(C(=O)NCCN)c4)ccc3c2n1CC(C)(C)O` [Compound 151, 3-((4-amino-2-(ethoxymethyl)-1-(2-hydroxy-2-methylpropyl)-1H-imidazo[4,5-c]quinolin-7-yl)methyl)-N-(2-aminoethyl)benzamide], the EC50 in experiment [1] is 1000 to 10000 nM; in experiment [2], less than 5000 nM; in experiment [3] it was less than 0.64 µM.

Regarding `CCOCc1nc2c(N)nc3cc(Cc4ccc5c(c4)CCNC5)ccc3c2n1CC(C)(C)O` [Compound 152, 1-(4-amino-2-(ethoxymethyl)-7-((1,2,3,4-tetrahydroisoquinolin-6-yl)methyl)-1H-imidazo[4,5-c]quinolin-1-yl)-2-methylpropan-2-ol], the EC50 in experiment [1] is less than 1000 nM; in experiment [2], less than 5000 nM; in experiment [3], less than 0.64 µM.

Take `CCOCc1nc2c(N)nc3cc(Cc4cccc(N5CCNCC5)c4)ccc3c2n1CC(C)(C)O` [Compound 153, 1-(4-amino-2-(ethoxymethyl)-7-(3-(piperazin-1-yl)benzyl)-1H-imidazo[4,5-c]quinolin-1-yl)-2-methylpropan-2-ol]: the EC50 in experiment [1] was less than 1000 nM; in experiment [2], less than 5000 nM; in experiment [3], less than 0.64 µM.
